Experimental findings from EP4663640A1 (Shanghai Institute of Materia Medica, Chinese Academy of …, priority 2023, dated 2024) are described below.

Molecules are shown by their SMILES.

Series [1] relates to primary cultured mouse hepatic stellate cells (HSC). Put plainly: Inhibition of TGF-β-induced hepatic stellate cell activation (α-SMA labeling). Conditions: 1 µM compound, TGF-β 10 ng/mL, 24 hours; TGF-β alone 11.76 ± 1.47%, unstimulated 0.3 ± 0.04%; Mean ± SEM. Format: cell-based. The procedure:
After primary cultured mouse hepatic stellate cells (HSC) were plated on 96-well black-bottom permeable plates for 24 hours, they were pre-incubated with 1 µM compound E21 and solvent control 0.1% DMSO for 1 hour, and then TGF-β was added to a final concentration of 10 ng/mL, and continued to be cultured in a CO2 incubator for 24 hours. Then the culture medium was aspirated, the plates were washed with 37 °C PBS solution for 3 times, and 4% paraformaldehyde solution was added for 30 minutes for fixation. Then 0.15% Triton X-100 solution was added for permeabilization for 10 minutes; then 5% BSA solution was added for blocking at room temperature for 1 hour; then anti-α-SMA solution (1:300) prepared with 5% BSA solution was added and incubated at 4 °C overnight; the next day, Alexa-488 anti-rabbit fluorescent secondary antibody (1:1000) prepared with 5% BSA solution was added and incubated at room temperature for 1 hour in the dark. […] After the end, the cells were washed 3 times with PBS solution and fluorescence photography was performed. The FITC filter was used to shoot green fluorescence, and the DAPI filter was used to shoot blue fluorescence. ImageJ software was used to count the total number of cells in each field of view, and the number of α-SMA positive cells was manually counted. […]

A short description of series [2]: Liver microsome stability test, mouse. Format: in vitro ADME. To be noted: Mouse liver microsomes. The source says:
Calculation of Intrinsic Clearance: Clint = (1000 × slope)/(P); [formula]
For orientation: Liver microsomes are a subcellular fraction often used to study metabolism.

The next series relates to mice. Put plainly: Marble burial test (antianxiety). Format: in vivo. To be noted: for number of buried marbles: test with reduced dosage (Figure 5). As for the experimental part: The drug to be tested was dissolved in DMSO: Tween 80: distilled water at a ratio of 2:2:96 (v/v/v), and then administered to mice by gavage at a volume of 10 mL/kg. […] The blank control group was only given 10 mL/kg of the above solvent.
The mouse marble burial test is a behavioral assay used for the screening of antianxiety drugs. It exploits the natural digging behavior of mice in environments such as burrows or escape tunnels and is sensitive to small changes in behavior caused by genetic manipulation, disease, or drug treatment.
A 5cm thick sawdust litter was laid in a 33 cm×24 cm×28 cm carton, and 4×5 black marbles (4 cm apart) with a total of 20 black marbles of 14mm in diameter were neatly placed on the litter. The mouse was put into the carton facing the corner for 30 minutes. After 30 minutes, the mouse was carefully taken out and the number of marbles buried by the mouse was counted. If more than 2/3 of the marble was buried, it was considered a whole marble. First, a blank experiment was conducted. Before the experiment, the mouse was taken to the experimental environment to adapt. After 1 hour, the experiment began. After the experiment, the mouse was returned to the cage and the number of marbles buried by the mouse was counted. On the second day, the mouse was taken to the experimental environment to adapt for 1 hour before the drug was administered. After the drug administration, the marble burying experiment was conducted for […]. After the experiment, the mouse was carefully taken out and returned to the cage to prevent the mouse from escaping violently and affecting the experimental results. After counting, the black marbles were taken out and wiped with alcohol, and the litter was turned over again to remove the smell of the previous mouse to prevent it from affecting the experiment of the next mouse. The marbles were neatly placed for the experiment of the next mouse.

Consider `Cn1c(=O)n(CCCO)c(=O)c2c1nc(C1(F)CCC(C(F)(F)F)CC1)n2Cc1ccc(Cl)cc1` (stereo not shown) [Example E21, 7-(4-chlorobenzyl)-8-(1-fluoro-4-(trifluoromethyl)cyclohexyl)-1-(3-hydroxypropyl)-3-methyl-3,7-dihydro-1H-purine-2,6-dione], for which the “proportion of α-SMA-positive cells” value in series [1] turned out to be 5.20 ± 0.74%.
As to `Cn1c(=O)n(CCCO)c(=O)c2c1nc(C1(F)CCC(F)(F)CC1)n2Cc1ccc(F)c(Cl)c1` [Example E68, 7-(3-chloro-4-fluorobenzyl)-1-(3-hydroxypropyl)-3-methyl-8-(1,4,4-trifluorocyclohexyl)-3,7-dihydro-1H-purine-2,6-dione], the “Stability Evaluation” value in series [2] is reported as “Medium (30%<MF%<70%, medium metabolic stability)”. The molecule also returned an MF % in series [2] (metabolic bioavailability) of 49.3%. The half-life at 1 µM in series [2] (pH 7.4, 1µM compound, read-out: Half-life T1/2) was found to be 46 min. Further, the “number of buried marbles” value in the series on mice (oral 0.03 mg/kg) is reported as “can reduce”; in the series with mice (oral 0.1 mg/kg, better than the same dose of HC-070), “more obvious”. Further, the “number of marbles buried by mice” value in the series on mice (oral 0.1-1 mg/kg, before versus after administration (Figure 3)) is recorded as “significantly reduced”.
